Drawing on US12371430B2, “5-morpholin-4-yl-pyrazolo[4,3-b]pyridine derivatives” (Merck Patent GmbH, priority 2018, dated 2025), this text covers IC50 for 18 compounds.

Assay [1] concerns the target ATR/ATRIP (Homo sapiens (Human), UniProt Q13535). Put plainly: ATR/ATRIP kinase assay (TR-FRET, p53 Ser15 phosphorylation). It counts as biochemical. Particulars: 0.5 μM ATP, 50 nM p53. The protocol: ATR/ATRIP Kinase Assay—Measurement of ATR/ATRIP Inhibition
The IC50 value was determined by an ATR/ATRIP enzymatic assay. The assay comprises two steps: the enzymatic reaction and the detection step. First, a mixture of ATR/ATRIP protein (Ataxia Telangiectasia and Rad3-related protein/ATR interacting protein), the compound in question at different concentrations, p53 as substrate protein and adenosine triphosphate (ATP) are incubated in assay buffer. ATR phosporylates p53 at Ser15 and other residues. The amount of phosphorylated p53 is then detected using specific antibodies and the TR-FRET assay technology.
In detail: The ATR/ATRIP enzymatic assay is performed as a TR-FRET-(HTRF™, Cisbio Bioassays) based 384-well assay. In a first step, purified human recombinant ATR/ATRIP (human ATR, full length, GenBank ID: NM_001184.3, and human ATRIP, full length, GenBank ID AF451323.1, co-expressed in a mammalian cell line) is incubated in assay buffer for 15 minutes at 22° C. with test compound at different concentrations or without test compound (as a negative control). The assay buffer contains 25 mM HEPES pH 8.0, 10 mM Mg(CH3COO)2, 1 mM MnCl2, 0.1% BSA, 0.01% Brij® 35, and 5 mM dithiothreitol (DTT). An Echo 555 (Labcyte) is used for dispensing of compound solutions. Then, in a second step, purified human recombinant cmyc-tagged p53 (human p53, full length, GenBank ID: BC003596, expressed in Sf21 insect cells) and ATP are added and the reaction mixture is incubated for 25-35 minutes, typically 25 minutes, at 22° C. The pharmacologically relevant assay volume is 5 μl. The final concentrations in the assay during incubation of the reaction mixture are 0.3-0.5 nM, typically 0.3 nM, ATR/ATRIP, 50 nM p53, and 0.5 μM ATP. The enzymatic reaction is stopped by the addition of EDTA. The generation of phosphorylated p53 as a result of the ATR mediated reaction in the presence of ATP is detected by using specific antibodies [labeled with the fluorophores europium (Eu) as donor and d2 as acceptor (Cisbio Bioassays)] enabling FRET. For this purpose, 2 μl of antibody-containing stop solution (12.5 mM HEPES pH 8.0, 125 mM EDTA, 30 mM sodium chloride, 300 mM potassium fluoride, 0.006% Tween-20, 0.005% Brij® 35, 0.21 nM anti-phospho-p53(Ser15)-Eu antibody, 15 nM anti-cmyc-d2 antibody) are added to the reaction mixture. Following signal development for 2 h the plates are analyzed in an EnVision (PerkinElmer) microplate reader using the TRF mode with laser excitation. Upon excitation of the donor europium at 340 nm the emitted fluorescence light of the acceptor d2 at 665 nm as well as from the donor Eu at 615 nm are measured. The amount of phosphorylated p53 is directly proportional to the ratio of the amounts of emitted light i.e. the ratio of the relative fluorescence units (rfu) at 665 nm and 615 nm. Data are processed employing the Genedata Screener software. In particular, IC50 values are determined in the usual manner by fitting a dose-response curve to the data points using nonlinear regression analysis. • IC50=half maximal inhibitory concentration • ATP=Adenosine triphosphate • TR-FRET=Time-Resolved Fluorescence Resonance Energy Transfer • HTRF®=Homogeneous Time Resolved Fluorescence • HEPES=2-(4-(2-Hydroxyethyl)-1-piperazinyl)-ethanesulfonic acid • Mg(CH3COO)2=Magnesium acetate • MnCl2=Manganese(II)-chloride • BSA=Bovine Serum Albumin • EDTA=Ethylendiamine Tetraacetate • TRF=Time Resolved Fluorescence pCHK1 Cellular Assay

In assay [2] the test system is phosphorylation of Chk1 (Ser 345) in HT29 colon adenocarcinoma cells. Nature of the assay: pCHK1 cellular assay. Conditions: Homo sapiens, HT-29, hydroxyurea 3 mM, 4 h. In kind it is cell-based. From the text:
Chk1 kinase acts downstream of ATR and has a key role in DNA damage checkpoint control. Activation of Chk1 involves phosphorylation of Ser317 and Ser345 (regarded as the preferential target for phosphorylation/activation by ATR) and occurs in response to blocked DNA replication and certain forms of genotoxic stress. Phosphorylation at Ser 345 serves to localize Chk1 to the nucleus following checkpoint activation.
This assay measures a decrease in phosphorylation of Chk1 (Ser 345) in HT29 colon adenocarcinoma cells following treatment with compound and hydroxyurea (which promotes fork stalling because of dNTP depletion) and using an immunocytochemical procedure and high content imaging.
For the assay HT29 cells are plated in culture medium (DMEM high Glucose (no phenol red), 2 mM Glutamax, 1 mM Pyruvate, 10% FCS into Greiner 384 well plates, black, μclear #781090 (2500 cells/well/30 μl) and incubated for at least 20 hours at 37° C., 10% CO2 and 90% rH. Diluted test compounds (1 nM-30 μM final) and hydroxyurea (3 mM final) are added simultaneously and cells are incubated for 4 h at 37° C. After fixation/prmeabilisation with 100% MeOH (−20° C. cold) and permeabilisation with 0.2% Triton X-100 a complete immunocytochemical procedure is performed using a specific anti-pChk1 antibody (Cell Signaling, #2348BF) and fluorescently labelled secondary antibody (Alexa Fluor® 488 goat anti-rabbit F(ab′)2 fragment, Invitrogen A11070) and parallel nuclear staining for cell counting.
The nuclear localised pChk1 signal is detected on an ImageXpress Ultra confocal high content reader and reported as % positive cells (nuclei).

ATR/ATRIP, sequence (Q13535 whole entry): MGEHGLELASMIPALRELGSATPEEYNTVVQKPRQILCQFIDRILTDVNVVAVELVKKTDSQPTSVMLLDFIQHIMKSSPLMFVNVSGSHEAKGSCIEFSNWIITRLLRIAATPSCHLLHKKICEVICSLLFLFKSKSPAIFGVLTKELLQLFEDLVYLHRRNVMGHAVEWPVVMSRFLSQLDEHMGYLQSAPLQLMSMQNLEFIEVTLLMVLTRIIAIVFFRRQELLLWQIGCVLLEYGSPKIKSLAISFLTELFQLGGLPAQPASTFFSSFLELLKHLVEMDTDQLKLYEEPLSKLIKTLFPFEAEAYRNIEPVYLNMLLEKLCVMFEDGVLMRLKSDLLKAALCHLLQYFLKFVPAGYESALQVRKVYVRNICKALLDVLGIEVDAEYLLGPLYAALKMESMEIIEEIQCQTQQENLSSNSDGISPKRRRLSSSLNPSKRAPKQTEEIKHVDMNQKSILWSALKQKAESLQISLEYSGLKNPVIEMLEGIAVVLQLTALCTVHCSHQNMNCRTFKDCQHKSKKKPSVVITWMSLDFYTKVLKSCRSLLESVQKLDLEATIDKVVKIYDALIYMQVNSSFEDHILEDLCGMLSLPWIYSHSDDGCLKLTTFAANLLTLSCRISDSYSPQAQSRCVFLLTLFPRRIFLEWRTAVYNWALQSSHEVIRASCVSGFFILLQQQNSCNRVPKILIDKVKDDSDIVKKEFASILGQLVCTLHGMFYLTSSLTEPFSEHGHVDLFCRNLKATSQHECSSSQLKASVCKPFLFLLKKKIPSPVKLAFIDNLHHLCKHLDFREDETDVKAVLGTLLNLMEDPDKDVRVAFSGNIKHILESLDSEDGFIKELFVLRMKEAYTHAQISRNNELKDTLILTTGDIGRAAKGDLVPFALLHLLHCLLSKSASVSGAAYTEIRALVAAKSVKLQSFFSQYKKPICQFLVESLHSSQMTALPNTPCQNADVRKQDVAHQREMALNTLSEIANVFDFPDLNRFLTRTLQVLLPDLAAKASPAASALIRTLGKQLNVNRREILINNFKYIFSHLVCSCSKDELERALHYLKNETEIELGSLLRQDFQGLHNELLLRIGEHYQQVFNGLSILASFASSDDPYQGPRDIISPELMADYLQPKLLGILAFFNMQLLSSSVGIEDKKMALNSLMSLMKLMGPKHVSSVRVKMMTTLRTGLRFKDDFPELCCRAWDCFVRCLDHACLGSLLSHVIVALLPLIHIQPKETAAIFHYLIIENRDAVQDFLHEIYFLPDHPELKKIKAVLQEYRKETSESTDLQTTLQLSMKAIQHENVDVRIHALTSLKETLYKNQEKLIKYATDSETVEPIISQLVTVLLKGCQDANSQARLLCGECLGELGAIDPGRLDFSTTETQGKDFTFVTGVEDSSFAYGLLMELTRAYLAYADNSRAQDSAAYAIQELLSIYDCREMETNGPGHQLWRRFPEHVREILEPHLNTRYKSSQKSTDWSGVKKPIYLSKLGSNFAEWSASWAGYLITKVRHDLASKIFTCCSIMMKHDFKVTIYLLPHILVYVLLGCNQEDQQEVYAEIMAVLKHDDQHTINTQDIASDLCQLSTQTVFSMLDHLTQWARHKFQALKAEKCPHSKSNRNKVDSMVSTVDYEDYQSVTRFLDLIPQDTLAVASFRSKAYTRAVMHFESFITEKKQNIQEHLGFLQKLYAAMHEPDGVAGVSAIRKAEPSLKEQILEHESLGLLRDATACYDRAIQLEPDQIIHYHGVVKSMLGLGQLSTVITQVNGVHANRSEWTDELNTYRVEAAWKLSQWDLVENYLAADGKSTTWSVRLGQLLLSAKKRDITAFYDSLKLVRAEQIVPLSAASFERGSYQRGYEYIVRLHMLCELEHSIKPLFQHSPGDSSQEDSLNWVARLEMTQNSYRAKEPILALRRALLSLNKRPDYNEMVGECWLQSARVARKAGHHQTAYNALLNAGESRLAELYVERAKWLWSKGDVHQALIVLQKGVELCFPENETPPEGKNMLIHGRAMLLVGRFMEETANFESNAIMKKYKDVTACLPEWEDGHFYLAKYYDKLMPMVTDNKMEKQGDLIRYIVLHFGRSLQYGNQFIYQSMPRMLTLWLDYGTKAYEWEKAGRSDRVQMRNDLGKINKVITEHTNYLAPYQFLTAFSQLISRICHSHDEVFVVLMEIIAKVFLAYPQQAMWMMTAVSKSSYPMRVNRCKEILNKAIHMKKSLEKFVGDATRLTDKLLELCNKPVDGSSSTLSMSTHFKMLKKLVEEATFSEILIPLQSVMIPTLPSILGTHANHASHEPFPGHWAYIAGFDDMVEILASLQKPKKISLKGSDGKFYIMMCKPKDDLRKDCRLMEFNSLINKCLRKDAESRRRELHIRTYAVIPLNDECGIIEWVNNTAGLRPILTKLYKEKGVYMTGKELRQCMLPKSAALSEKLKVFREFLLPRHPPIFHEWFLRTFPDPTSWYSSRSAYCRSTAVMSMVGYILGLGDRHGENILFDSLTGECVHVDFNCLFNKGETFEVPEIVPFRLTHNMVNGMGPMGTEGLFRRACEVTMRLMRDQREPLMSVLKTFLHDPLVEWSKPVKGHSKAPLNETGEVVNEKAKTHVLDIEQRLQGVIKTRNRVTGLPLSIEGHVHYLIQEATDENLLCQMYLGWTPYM
ATR/ATRIP, sequence (Q8WXE1 whole entry partner): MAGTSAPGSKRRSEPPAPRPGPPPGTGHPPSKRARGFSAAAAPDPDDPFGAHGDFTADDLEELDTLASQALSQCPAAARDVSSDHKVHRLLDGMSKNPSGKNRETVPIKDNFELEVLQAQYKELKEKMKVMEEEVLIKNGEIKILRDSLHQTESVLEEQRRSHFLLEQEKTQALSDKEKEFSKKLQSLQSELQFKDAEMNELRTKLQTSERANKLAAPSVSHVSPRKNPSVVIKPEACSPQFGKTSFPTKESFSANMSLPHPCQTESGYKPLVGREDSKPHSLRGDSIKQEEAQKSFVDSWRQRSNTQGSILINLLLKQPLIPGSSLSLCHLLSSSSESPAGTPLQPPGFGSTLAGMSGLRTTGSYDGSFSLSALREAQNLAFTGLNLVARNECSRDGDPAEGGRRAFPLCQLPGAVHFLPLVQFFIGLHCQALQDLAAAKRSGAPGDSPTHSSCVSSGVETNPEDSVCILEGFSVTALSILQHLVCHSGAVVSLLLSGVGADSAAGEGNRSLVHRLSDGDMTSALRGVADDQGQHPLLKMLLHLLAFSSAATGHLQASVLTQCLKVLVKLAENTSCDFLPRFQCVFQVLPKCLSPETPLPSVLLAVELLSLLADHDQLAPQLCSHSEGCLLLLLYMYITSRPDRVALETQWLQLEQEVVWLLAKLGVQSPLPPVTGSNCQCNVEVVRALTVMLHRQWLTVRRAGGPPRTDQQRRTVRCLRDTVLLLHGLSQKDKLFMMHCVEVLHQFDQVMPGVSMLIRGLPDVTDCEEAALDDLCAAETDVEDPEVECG

Take `C[C@@H]1COCCN1c1cc(CO)c2c(n1)c(-c1cc[nH]n1)nn2C` [Compound 24, [1-Methyl-5-((R)-3-methyl-morpholin-4-yl)-3-(1H-pyrazol-3-yl)-1H-pyrazolo[4,3-b]pyridin-7-yl]-methanol]: the IC50 in assay [1] is 0.028 µM; in assay [2], 0.1 to 1 µM.

On to `Cc1ncncc1-c1cc(N2CCOC[C@H]2C)nc2c(-c3cc[nH]n3)nn(C)c12` [Compound 87, (3R)-3-Methyl-4-[1-methyl-7-(4-methylpyrimidin-5-yl)-3-(1H-pyrazol-3-yl)-1H-pyrazolo[4,3-b]pyridin-5-yl]morpholine], for which the results for the IC50 in assay [1] and in assay [2] were 0.0004 µM and 0.01 to 0.1 µM, respectively.

In the case of `CC(C)Oc1cc(N2CCOC[C@H]2C)nc2c(-c3ccn[nH]3)nn(C)c12` [Compound 44, 7-Isopropoxy-1-methyl-5-((R)-3-methyl-morpholin-4-yl)-3-(2H-pyrazol-3-yl)-1H-pyrazolo[4,3-b]pyridine], the results for the IC50 in assay [1] and in assay [2] were 0.0042 µM and 0.1 to 1 µM, respectively.

Take `C[C@@H]1COCCN1c1ccc2c(n1)c(-c1cc[nH]n1)nn2CC1CC1` [Compound 63, (3R)-4-[1-(Cyclopropylmethyl)-3-(1H-pyrazol-3-yl)-1H-pyrazolo[4,3-b]pyridin-5-yl]-3-methylmorpholine]: the figures for the IC50 in assay [1] and in assay [2] were 0.027 µM and 0.1 to 1 µM, respectively.

For `C[C@@H]1COCCN1c1cc(C2=CCS(=O)(=O)CC2)c2c(n1)c(-c1ccn[nH]1)nn2C` [Compound 81, 4-[1-Methyl-5-[(3R)-3-methylmorpholin-4-yl]-3-(1H-pyrazol-5-yl)-1H-pyrazolo[4,3-b]pyridin-7-yl]-3,6-dihydro-2H-1lambda6-thiopyran-1,1-dione], the IC50 in assay [1] was 0.003 µM; in assay [2] it was 0.1 to 1 µM.

In the case of `C[C@@H]1COCCN1c1cc(-c2ccn(CCO)n2)c2c(n1)c(-c1cc[nH]n1)nn2C` [Compound 37, 2-{3-[1-Methyl-5-((R)-3-methyl-morpholin-4-yl)-3-(1H-pyrazol-3-yl)-1H-pyrazolo[4,3-b]pyridin-7-yl]-pyrazol-1-yl}-ethanol], the IC50 in assay [1] is 0.0079 µM; in assay [2] it was 0.1 to 1 µM.

Take `C[C@@H]1COCCN1c1cc(-c2ccc(S(C)(=N)=O)cc2)c2c(n1)c(-c1cc[nH]n1)nn2C` (stereo partly drawn) [Compound 6, Imino(methyl)(4-{1-methyl-5-[(3R)-3-methylmorpholin-4-yl]-3-(1H-pyrazol-3-yl)-1H-pyrazolo[4,3-b]pyridin-7-yl}phenyl)-lambda6-sulfanone]: the IC50 was 0.0089 µM in assay [1] and 0.1 to 1 µM in assay [2].

As to `C[C@@H]1COCCN1c1ccc2c(n1)c(-c1cc[nH]n1)nn2-c1ccc(S(C)(=O)=O)cc1` [Compound 46, 1-(4-Methanesulfonyl-phenyl)-5-((R)-3-methyl-morpholin-4-yl)-3-(1H-pyrazol-3-yl)-1H-pyrazolo[4,3-b]pyridine], the IC50 was 0.025 µM in assay [1] and 1 to 10 µM in assay [2].

In the case of `CNC(=O)c1cc(N2CCOC[C@H]2C)nc2c(-c3cc[nH]n3)n[nH]c12` [Compound 28, 5-((R)-3-Methyl-morpholin-4-yl)-3-(1H-pyrazol-3-yl)-1H-pyrazolo[4,3-b]pyridine-7-carboxylic acid methylamide], the results for the IC50 in assay [1] and in assay [2] were 0.0053 µM and 0.1 to 1 µM, respectively.

With `C[C@@H]1COCCN1c1cc(-c2ccccn2)c2[nH]nc(-c3cc[nH]n3)c2n1` [Compound 38, (3R)-3-Methyl-4-[3-(1H-pyrazol-3-yl)-7-(pyridin-2-yl)-1H-pyrazolo[4,3-b]pyridin-5-yl]morpholine], the IC50 was 0.0043 µM in assay [1] and 0.1 to 1 µM in assay [2].

`C[C@@H]1COCCN1c1ccc2[nH]nc(-c3cc[nH]n3)c2n1` [Compound 56, (3R)-3-Methyl-4-[3-(1H-pyrazol-3-yl)-1H-pyrazolo[4,3-b]pyridin-5-yl]morpholine]: the IC50 in assay [1] was 0.025 µM; in assay [2], 1 to 10 µM.

Regarding `C[C@@H]1COCCN1c1cc(C2CC2)c2c(n1)c(-c1ccn[nH]1)nn2C` [Compound 43, 7-Cyclopropyl-1-methyl-5-((R)-3-methyl-morpholin-4-yl)-3-(2H-pyrazol-3-yl)-1H-pyrazolo[4,3-b]pyridine], the IC50 in assay [1] was 0.0039 µM; in assay [2], 0.1 to 1 µM.

Regarding `C[C@@H]1COCCN1c1ccc2c(n1)c(-c1cc[nH]n1)nn2-c1cccc(C#N)c1` [Compound 53, 3-[5-((3R)-3-Methyl-morpholin-4-yl)-3-(1H-pyrazol-3-yl)-1H-pyrazolo[4,3-b]pyridin-1-yl]-benzonitrile], the IC50 was 0.058 µM in assay [1] and 1 to 10 µM in assay [2].

Turning to `CC(C)n1nc(-c2cc[nH]n2)c2nc(N3CCOC[C@H]3C)cc(-c3ccc(S(C)(=O)=O)cc3)c21` [Compound 41, (3R)-4-[7-(4-Methanesulfonylphenyl)-1-(propan-2-yl)-3-(1H-pyrazol-3-yl)-1H-pyrazolo[4,3-b]pyridin-5-yl]-3-methylmorpholine], the IC50 in assay [1] was 0.0013 µM; in assay [2], 0.01 to 0.1 µM.

`CC(c1cc(N2CCOC[C@H]2C)nc2c(-c3cc[nH]n3)nn(C)c12)S(C)(=O)=O` (stereo partly drawn) [Compound 89, (3R)-4-[7-(1-Methanesulfonylethyl)-1-methyl-3-(1H-pyrazol-3-yl)-1H-pyrazolo[4,3-b]pyridin-5-yl]-3-methylmorpholine]: the IC50 in assay [1] was 0.0009 µM; in assay [2], 1 to 10 µM.

As for `Cc1cccnc1-c1cc(N2CCOC[C@H]2C)nc2c(-c3cc[nH]n3)nn(C)c12` [Compound 62, (3R)-3-Methyl-4-[1-methyl-7-(3-methylpyridin-2-yl)-3-(1H-pyrazol-3-yl)-1H-pyrazolo[4,3-b]pyridin-5-yl]morpholine], the IC50 is 0.022 µM in assay [1] and 1 to 10 µM in assay [2].

For `Cc1nc([S@+](C)[O-])ccc1-c1cc(N2CCOC[C@H]2C)nc2c(-c3cc[nH]n3)nn(C)c12` [Compound 9, (3R)-4-(7-{6-[(S)-Methanesulfinyl]-2-methylpyridin-3-yl}-1-methyl-3-(1H-pyrazol-3-yl)-1H-pyrazolo[4,3-b]pyridin-5-yl)-3-methylmorpholine], the IC50 in assay [1] is 0.0041 µM; in assay [2], 0.01 to 0.1 µM.

Turning to `C[C@@H]1COCCN1c1ccc2c(n1)c(-c1cc[nH]n1)nn2C(C)(C)CO` [Compound 86, 2-Methyl-2-{5-[(3R)-3-methylmorpholin-4-yl]-3-(1H-pyrazol-3-yl)-1H-pyrazolo[4,3-b]pyridin-1-yl}propan-1-ol], the IC50 in assay [1] was 0.024 µM; in assay [2], 1 to 10 µM.

For orientation: IC50 means the concentration needed to halve the response being measured. Higher therefore signals weaker potency.
